According to patent US20070128217A1 (priority 2003, published 2007):

What was measured:
[1] = test system: rabbit serum obtained by immunizing a rabbit with the SARS-CoV strain Frankfurt 1; type: binding; design: Binding of a rabbit serum to linear peptides / Binding of a rabbit serum to looped peptides / Rabbit serum linear peptides / Rabbit serum looped peptides / Binding of a rabbit serum to linear peptides of protein N of SARS-CoV Urbani (Rabbit serum linear peptides) / Binding of a rabbit serum to looped/cyclic peptides of protein N of SARS-CoV Urbani (Rabbit serum looped peptides): unit not given here
[2] = test system: control sera (pooled serum of ten healthy LUMC hospital workers; commercial negative donor pooled serum from the Dutch bloodbank); type: binding, human; design: Binding of Control serum LUMC to linear peptides / Binding of Control serum Blood-bank to linear peptides / Binding of Control serum LUMC to looped peptides / Binding of Control Serum Blood-Bank to Looped peptides / Binding of Control serum LUMC to linear peptides of the protein M of SARS-CoV Urbani / Binding of Control serum Blood-bank to linear peptides of the protein M of SARS-CoV Urbani / Binding of Control serum LUMC to looped peptides of the protein M of SARS-CoV Urbani / Binding of Control Serum Blood-Bank to Looped peptides of the protein M of SARS-CoV Urbani: unit not given here
[3] = test system: antibodies in sera from SARS patients (sera 1a, 1b, 2, 6, 37, 62, London, SARS-yellow, SARS-green); type: binding, human; design: Binding of serum 6 to linear peptides of protein X1 of SARS-CoV Urbani / Binding of serum 37 to linear peptides of protein X1 of SARS-CoV Urbani / Binding of serum 6 to looped/cyclic peptide (PEPSCAN-ELISA) / Binding of serum 37 to looped/cyclic peptide (PEPSCAN-ELISA) / Binding of serum 37 to looped/cyclic peptides of protein X1 of SARS-CoV Urbani / Binding of serum 6 to linear peptides of protein X2 / Binding of serum 37 to linear peptides of protein X2 / Binding of serum 37 to looped/cyclic peptides of protein X2 of SARS-CoV Urbani / Binding of serum 6 to linear peptides of protein M of SARS-CoV Urbani / Binding of serum 37 to linear peptides of protein M of SARS-CoV Urbani / Binding of serum 6 to looped/cyclic peptides of protein M of SARS-CoV Urbani / Binding of serum 37 to looped/cyclic peptides of protein M of SARS-CoV Urbani / Binding of serum 6 to linear peptides of protein X3 of SARS-CoV Urbani / Binding of serum 37 to linear peptides of protein X3 of SARS-CoV Urbani / Binding of serum 37 to looped/cyclic peptides of protein X3 of SARS-CoV Urbani / Binding of serum 6 to linear peptides of protein X4 of SARS-CoV Urbani / Binding of serum 37 to linear peptides of protein X4 of SARS-CoV Urbani / Binding of serum 37 to looped/cyclic peptides of protein X4 of SARS-CoV Urbani / Binding of serum 6 to linear peptides of protein X5 of SARS-CoV Urbani / Binding of serum 37 to linear peptides of protein X5 of SARS-CoV Urbani / Binding of serum 37 to looped/cyclic peptides of protein X5 of SARS-CoV Urbani / Binding of serum 6 to linear peptides of protein N of SARS-CoV Urbani / Binding of serum 37 to linear peptides of protein N of SARS-CoV Urbani / Binding of serum 6 to linear peptide (PEPSCAN-ELISA) / Binding of serum 1a to looped/cyclic peptides of protein N of SARS-CoV Urbani / Binding of serum 1b to looped/cyclic peptides of protein N of SARS-CoV Urbani / Binding of serum 2 to looped/cyclic peptides of protein N of SARS-CoV Urbani / Binding of serum 6 to looped/cyclic peptides of protein N of SARS-CoV Urbani / Binding of serum 37 to looped/cyclic peptides of protein N of SARS-CoV Urbani / Binding of serum 62 to looped/cyclic peptides of protein N of SARS-CoV Urbani / Binding of serum London to looped/cyclic peptides of protein N of SARS-CoV Urbani / Binding of serum SARS-green to looped/cyclic peptides of protein N of SARS-CoV Urbani: unit not given here

AILTALRLCAYCCNI
Binding of a rabbit serum to linear peptides [1]: 0.2 | Binding of a rabbit serum to looped peptides [1]: 0.6 | Binding of Control Serum Blood-Bank to Looped peptides [2]: 0.6 | Binding of Control serum Blood-bank to linear peptides [2]: 0.6 | Binding of Control serum LUMC to linear peptides [2]: 0.6 | Binding of Control serum LUMC to looped peptides [2]: 0.8 | Binding of serum 1a to linear peptides of protein E of SARS-CoV Urbani [3]: 0.6 | Binding of serum 1a to looped/cyclic peptides of protein E of SARS-CoV Urbani [3]: 0.8 | Binding of serum 1b to linear peptides of protein E of SARS-CoV Urbani [3]: 0.4 | Binding of serum 1b to looped/cyclic peptides of protein E of SARS-CoV Urbani [3]: 0.6 | Binding of serum 2 to linear peptides of protein E of SARS-CoV Urbani [3]: 0.5 | Binding of serum 2 to looped/cyclic peptides of protein E of SARS-CoV Urbani [3]: 0.7 | Binding of serum 6 to linear peptides of protein E of SARS-CoV Urbani [3]: 0.3 | Binding of serum 6 to looped/cyclic peptides of protein E of SARS-CoV Urbani [3]: 0.5 | Binding of serum 37 to linear peptides of protein E of SARS-CoV Urbani [3]: 0.4 | Binding of serum 37 to looped/cyclic peptides of protein E of SARS-CoV Urbani [3]: 0.7 | Binding of serum 62 to linear peptides of protein E of SARS-CoV Urbani [3]: 0.4 | Binding of serum 62 to looped/cyclic peptides of protein E of SARS-CoV Urbani [3]: 0.8 | Binding of serum London to linear peptides of protein E of SARS-CoV Urbani [3]: 0.5 | Binding of serum London to looped/cyclic peptides of protein E of SARS-CoV Urbani [3]: 0.4 | Binding of serum SARS-green to linear peptides of protein E of SARS-CoV Urbani [3]: 0.5 | Binding of serum SARS-green to looped/cyclic peptides of protein E of SARS-CoV Urbani [3]: 0.5 | Binding of serum SARS-yellow to linear peptides of protein E of SARS-CoV Urbani [3]: 0.1 | Binding of serum SARS-yellow to looped/cyclic peptides of protein E of SARS-CoV Urbani [3]: 0.9

FNPETNILLNVPLRG
Rabbit serum linear peptides [1]: 0.0 | Rabbit serum looped peptides [1]: 0.4 | Binding of Control Serum Blood-Bank to Looped peptides of the protein M of SARS-CoV Urbani [2]: 0.8 | Binding of Control serum Blood-bank to linear peptides of the protein M of SARS-CoV Urbani [2]: 0.6 | Binding of Control serum LUMC to linear peptides of the protein M of SARS-CoV Urbani [2]: 0.7 | Binding of Control serum LUMC to looped peptides of the protein M of SARS-CoV Urbani [2]: 0.9 | Binding of serum 1a to linear peptides of protein M of SARS-CoV Urbani [3]: 0.8 | Binding of serum 1a to looped/cyclic peptides of protein M of SARS-CoV Urbani [3]: 0.8 | Binding of serum 1b to linear peptides of protein M of SARS-CoV Urbani [3]: 0.6 | Binding of serum 1b to looped/cyclic peptides of protein M of SARS-CoV Urbani [3]: 0.8 | Binding of serum 2 to linear peptides of protein M of SARS-CoV Urbani [3]: 0.5 | Binding of serum 2 to looped/cyclic peptides of protein M of SARS-CoV Urbani [3]: 0.7 | Binding of serum 6 to linear peptides of protein M of SARS-CoV Urbani [3]: 0.5 | Binding of serum 6 to looped/cyclic peptides of protein M of SARS-CoV Urbani [3]: 0.7 | Binding of serum 37 to linear peptides of protein M of SARS-CoV Urbani [3]: 0.5 | Binding of serum 37 to looped/cyclic peptides of protein M of SARS-CoV Urbani [3]: 0.9 | Binding of serum 62 to linear peptides of protein M of SARS-CoV Urbani [3]: 0.4 | Binding of serum 62 to looped/cyclic peptides of protein M of SARS-CoV Urbani [3]: 0.8 | Binding of serum London to linear peptides of protein M of SARS-CoV Urbani [3]: 0.3 | Binding of serum London to looped/cyclic peptides of protein M of SARS-CoV Urbani [3]: 0.3 | Binding of serum SARS-green to linear peptides of protein M of SARS-CoV Urbani [3]: 0.5 | Binding of serum SARS-green to looped/cyclic peptides of protein M of SARS-CoV Urbani [3]: 0.3 | Binding of serum SARS-yellow to linear peptides of protein M of SARS-CoV Urbani [3]: 0.2 | Binding of serum SARS-yellow to looped/cyclic peptides of protein M of SARS-CoV Urbani [3]: 0.8
